Assay results taken from publication PMC5218480 (PLoS ONE, 2017).

Tested on: MV-4-11 cells
Experiment: Gene expression microarray analysis (Affymetrix PrimeView) and GSEA
Format: cell-based, human
Parameters: RFU PODN (11730768_x_at) / Fold change /veh PODN (11730768_x_at) / RFU LINC00158 (11744669_a_at) / Fold change /veh LINC00158 (11744669_a_at) / RFU DUSP10 (11751237_a_at) / Fold change /veh DUSP10 (11751237_a_at) / RFU ID3 (11757404_x_at) / Fold change /veh ID3 (11757404_x_at) / RFU PLEKHG5 (11737974_s_at) / Fold change /veh PLEKHG5 (11737974_s_at) / RFU LRRC4B (11730491_at) / Fold change /veh LRRC4B (11730491_at) / RFU GIMAP4 (11747438_a_at) / Fold change /veh GIMAP4 (11747438_a_at) / RFU KRT8 (11758183_x_at) / Fold change /veh KRT8 (11758183_x_at) / RFU CNN1 (11734310_a_at) / Fold change /veh CNN1 (11734310_a_at) / RFU VPS37D (11726825_at) / Fold change /veh VPS37D (11726825_at) / RFU C10orf10 (11716522_x_at) / Fold change /veh C10orf10 (11716522_x_at) / RFU KIR2DL2 /// KIR2DL4 /// KIR2DL5A /// KIR2DL5B /// KIR2DS1 /// KIR2DS2 /// KIR2DS3 /// KIR2DS4 /// KIR3DL3 /// KIR3DL3 /// KIR3DS1 (11738374_at) / Fold change /veh KIR2DL2 /// KIR2DL4 /// KIR2DL5A /// KIR2DL5B /// KIR2DS1 /// KIR2DS2 /// KIR2DS3 /// KIR2DS4 /// KIR3DL3 /// KIR3DL3 /// KIR3DS1 (11738374_at) / RFU C1QL1 (11718748_at) / Fold change /veh C1QL1 (11718748_at) / RFU TMPRSS4 (11747572_a_at) / Fold change /veh TMPRSS4 (11747572_a_at) / RFU HAMP (11756126_x_at) / Fold change /veh HAMP (11756126_x_at) / RFU RNFT2 (11725882_a_at) / Fold change /veh RNFT2 (11725882_a_at) / RFU NR4A2 (11747474_a_at) / Fold change /veh NR4A2 (11747474_a_at) / RFU ABCC12 (11746883_a_at) / Fold change /veh ABCC12 (11746883_a_at) / RFU TMEM136 (11760407_x_at) / Fold change /veh TMEM136 (11760407_x_at) / RFU CLDN22 /// WWC2 (11732394_at) / Fold change /veh CLDN22 /// WWC2 (11732394_at) / RFU HLA-DPB1 (11760878_x_at) / Fold change /veh HLA-DPB1 (11760878_x_at) / RFU SPINT1 (11716480_a_at) / Fold change /veh SPINT1 (11716480_a_at) / RFU GAP43 (11754022_s_at) / Fold change /veh GAP43 (11754022_s_at) / RFU A4GNT (11735810_at) / Fold change /veh A4GNT (11735810_at) / RFU PRB3 (11715151_x_at) / Fold change /veh PRB3 (11715151_x_at) / RFU TUBB4B (11761932_at) / Fold change /veh TUBB4B (11761932_at) / RFU CAPN14 (11732068_a_at) / Fold change /veh CAPN14 (11732068_a_at) / RFU TMCC2 (11721928_a_at) / Fold change /veh TMCC2 (11721928_a_at) / RFU IRGQ (11745062_a_at) / Fold change /veh IRGQ (11745062_a_at) / RFU FAM174B (11720279_a_at) / Fold change /veh FAM174B (11720279_a_at) / RFU TMPRSS4 (11748680_a_at) / Fold change /veh TMPRSS4 (11748680_a_at) / RFU FAM212B (11763350_a_at) / Fold change /veh FAM212B (11763350_a_at) / RFU PLEKHG5 (11743358_a_at) / Fold change /veh PLEKHG5 (11743358_a_at) / RFU ZSCAN30 (11745921_a_at) / Fold change /veh ZSCAN30 (11745921_a_at) / RFU CMKLR1 (11741424_a_at) / Fold change /veh CMKLR1 (11741424_a_at) / RFU LOC101060620 /// MAPK8IP1 (11723275_at) / Fold change /veh LOC101060620 /// MAPK8IP1 (11723275_at) / RFU SPTSSB (11747773_x_at) / Fold change /veh SPTSSB (11747773_x_at) / RFU PRSS12 (11739890_at) / Fold change /veh PRSS12 (11739890_at) / RFU BIN1 (11741810_x_at) / Fold change /veh BIN1 (11741810_x_at) / RFU WNT11 (11732464_a_at) / Fold change /veh WNT11 (11732464_a_at) / RFU C10orf10 (11716521_a_at) / Fold change /veh C10orf10 (11716521_a_at) / RFU C5orf56 (11738089_at) / Fold change /veh C5orf56 (11738089_at) / RFU CYB561 (11721691_x_at) / Fold change /veh CYB561 (11721691_x_at) / RFU ANKRD19P (11752326_a_at) / Fold change /veh ANKRD19P (11752326_a_at) / RFU OR2T12 /// OR2T33 /// OR2T8 (11738714_s_at) / Fold change /veh OR2T12 /// OR2T33 /// OR2T8 (11738714_s_at) / RFU VCAN (11748164_a_at) / Fold change /veh VCAN (11748164_a_at) / RFU JSRP1 (11732532_at) / Fold change /veh JSRP1 (11732532_at) / RFU KRTAP10-11 (11738290_x_at) / Fold change /veh KRTAP10-11 (11738290_x_at) / RFU MYO3A (11730013_a_at) / Fold change /veh MYO3A (11730013_a_at) / RFU EBF3 (11725865_a_at) / Fold change /veh EBF3 (11725865_a_at) / RFU CAMK2N1 (11719241_x_at) / Fold change /veh CAMK2N1 (11719241_x_at) / RFU C5orf56 (11738088_a_at) / Fold change /veh C5orf56 (11738088_a_at) / RFU OLFML3 (11715873_a_at) / Fold change /veh OLFML3 (11715873_a_at) / RFU LOC100653217 /// NTM (11731650_a_at) / Fold change /veh LOC100653217 /// NTM (11731650_a_at) / RFU MAPK11 (11762145_a_at) / Fold change /veh MAPK11 (11762145_a_at) / RFU FIZ1 (11724087_x_at) / Fold change /veh FIZ1 (11724087_x_at) / RFU OASL (11726364_x_at) / Fold change /veh OASL (11726364_x_at) / RFU SOX15 (11748057_x_at) / Fold change /veh SOX15 (11748057_x_at) / RFU CD79A (11719716_a_at) / Fold change /veh CD79A (11719716_a_at) / RFU HIST1H1D (11736915_at) / Fold change /veh HIST1H1D (11736915_at) / RFU CASKIN2 (11723855_a_at) / Fold change /veh CASKIN2 (11723855_a_at) / RFU LOC730098 (11760151_x_at) / Fold change /veh LOC730098 (11760151_x_at) / RFU OR4N2 (11742367_at) / Fold change /veh OR4N2 (11742367_at) / RFU PRRT2 (11749266_a_at) / Fold change /veh PRRT2 (11749266_a_at) / RFU SNX32 (11753110_a_at) / Fold change /veh SNX32 (11753110_a_at) / RFU CDHR5 (11726645_a_at) / Fold change /veh CDHR5 (11726645_a_at) / RFU RCAN1 (11760418_a_at) / Fold change /veh RCAN1 (11760418_a_at) / RFU FAM167A (11723789_a_at) / Fold change /veh FAM167A (11723789_a_at) / RFU FAM26E (11764081_at) / Fold change /veh FAM26E (11764081_at) / RFU ISYNA1 (11749810_s_at) / Fold change /veh ISYNA1 (11749810_s_at) / RFU ACY1 (11761880_at) / Fold change /veh ACY1 (11761880_at) / RFU 11764098_at / Fold change /veh 11764098_at / RFU SAMD14 (11745864_x_at) / Fold change /veh SAMD14 (11745864_x_at) / RFU NPB (11741838_a_at) / Fold change /veh NPB (11741838_a_at) / RFU TMPRSS6 (11731388_a_at) / Fold change /veh TMPRSS6 (11731388_a_at) / RFU KRTAP10-2 (11738614_at) / Fold change /veh KRTAP10-2 (11738614_at) / RFU ARHGAP8 /// PRR5-ARHGAP8 (11727945_x_at) / Fold change /veh ARHGAP8 /// PRR5-ARHGAP8 (11727945_x_at) / RFU KRTAP5-7 /// NADSYN1 (11734609_at) / Fold change /veh KRTAP5-7 /// NADSYN1 (11734609_at) / RFU RASL12 (11751679_a_at) / Fold change /veh RASL12 (11751679_a_at) / RFU CDKN2B (11736163_a_at) / Fold change /veh CDKN2B (11736163_a_at) / RFU PRF1 (11729649_at) / Fold change /veh PRF1 (11729649_at) / RFU, ZNF638 /// ZNF638-IT1 / Fold change vs veh, ZNF638 /// ZNF638-IT1 / RFU, PANK3 / Fold change vs veh, PANK3 / RFU, SH3YL1 / Fold change vs veh, SH3YL1 / RFU, ZEB2 / Fold change vs veh, ZEB2 / RFU, NRIP1 / Fold change vs veh, NRIP1 / RFU, PTTG1IP / Fold change vs veh, PTTG1IP / RFU, CAPN2 / Fold change vs veh, CAPN2 / RFU, MED14 / Fold change vs veh, MED14 / RFU, SNORA58 / Fold change vs veh, SNORA58 / RFU, C1orf63 / Fold change vs veh, C1orf63 / RFU, LRRFIP1 / Fold change vs veh, LRRFIP1 / RFU, NDUFAF7 / Fold change vs veh, NDUFAF7 / RFU, SLC12A2 / Fold change vs veh, SLC12A2 / RFU, IBTK / Fold change vs veh, IBTK / RFU, ESF1 / Fold change vs veh, ESF1 / Fold change vs veh, TMEM50B / RFU, TAOK1 / Fold change vs veh, TAOK1 / RFU, ACBD3 / Fold change vs veh, ACBD3 / RFU, TMA16 / Fold change vs veh, TMA16 / RFU, RWDD3 / Fold change vs veh, RWDD3 / RFU, BCAT1 / Fold change vs veh, BCAT1 / RFU, EDEM3 / Fold change vs veh, EDEM3 / RFU, TMEM33 / Fold change vs veh, TMEM33 / RFU, WDR75 / Fold change vs veh, WDR75 / RFU, AHCTF1 / Fold change vs veh, AHCTF1 / RFU, TFRC / Fold change vs veh, TFRC / RFU, ZDHHC17 / Fold change vs veh, ZDHHC17 / RFU, NOM1 / Fold change vs veh, NOM1 / RFU, ARL8B / Fold change vs veh, ARL8B / RFU, ZBTB11 / Fold change vs veh, ZBTB11 / RFU, TAMM41 / Fold change vs veh, TAMM41 / RFU, KIAA1704 /// LOC100996395 / Fold change vs veh, KIAA1704 /// LOC100996395 / RFU, ING1 / Fold change vs veh, ING1 / RFU, TRMT61B / Fold change vs veh, TRMT61B / RFU, FUBP3 / Fold change vs veh, FUBP3 / RFU, TP53 / Fold change vs veh, TP53 / RFU, TNKS2 / Fold change vs veh, TNKS2 / RFU, ZFP14 / Fold change vs veh, ZFP14 / RFU, ACTR2 / Fold change vs veh, ACTR2 / RFU, PPP3R1 / Fold change vs veh, PPP3R1 / RFU, PIK3R1 / Fold change vs veh, PIK3R1 / RFU, HNRNPA1 / Fold change vs veh, HNRNPA1 / RFU, RNF170 / Fold change vs veh, RNF170 / RFU, ZNF28 / Fold change vs veh, ZNF28 / RFU, RNGTT / Fold change vs veh, RNGTT / RFU, OGT / Fold change vs veh, OGT / RFU, BRD1 / Fold change vs veh, BRD1 / RFU, MARS / Fold change vs veh, MARS / RFU, ZNF655 / Fold change vs veh, ZNF655 / RFU, FAHD1 / Fold change vs veh, FAHD1 / RFU, BDP1 / Fold change vs veh, BDP1 / RFU, LRRCC1 / Fold change vs veh, LRRCC1 / RFU, ARID1A / Fold change vs veh, ARID1A / RFU, ZNF146 / Fold change vs veh, ZNF146 / RFU, ZNF330 / Fold change vs veh, ZNF330 / RFU, GPN3 / Fold change vs veh, GPN3 / RFU, C9orf123 / Fold change vs veh, C9orf123 / RFU, N4BP2L2 / Fold change vs veh, N4BP2L2 / RFU, ARFIP1 / Fold change vs veh, ARFIP1 / RFU, FAM179B / Fold change vs veh, FAM179B / RFU, BCL10 / Fold change vs veh, BCL10 / RFU, UHRF1BP1L / Fold change vs veh, UHRF1BP1L / RFU, BET1 / Fold change vs veh, BET1 / RFU, CNOT2 / Fold change vs veh, CNOT2 / RFU, ZNF268 / Fold change vs veh, ZNF268 / Fold change vs veh, ZNF507 / RFU, DGCR2 / Fold change vs veh, DGCR2 / RFU, WDSUB1 / Fold change vs veh, WDSUB1 / Fold change vs veh, HSP90B1 /// MIR3652 / RFU, ADSS / Fold change vs veh, ADSS / RFU, GK / Fold change vs veh, GK / RFU, ZNF148 / Fold change vs veh, ZNF148 / RFU, TAF9 / Fold change vs veh, TAF9 / RFU, SLC1A5 / Fold change vs veh, SLC1A5 / RFU, SLMO2 / Fold change vs veh, SLMO2 / RFU, ABCC4 / Fold change vs veh, ABCC4 / RFU, LOC101060439 /// RAP1B / Fold change vs veh, LOC101060439 /// RAP1B / RFU, RFX7 / Fold change vs veh, RFX7 / RFU, GTPBP10 / Fold change vs veh, GTPBP10 / RFU, CNEP1R1 / Fold change vs veh, CNEP1R1 / RFU, BIVM-ERCC5 /// ERCC5 / Fold change vs veh, BIVM-ERCC5 /// ERCC5 / RFU, ILF3 / Fold change vs veh, ILF3 / RFU 11762660_at / Fold change /veh 11762660_at / RFU VCAN (11757783_s_at) / Fold change /veh VCAN (11757783_s_at) / RFU DDX43 (11728927_at) / Fold change /veh DDX43 (11728927_at) / RFU KRT8 (11758188_x_at) / Fold change /veh KRT8 (11758188_x_at) / RFU NKD1 (11759106_at) / Fold change /veh NKD1 (11759106_at) / RFU SRD5A1 (11742802_a_at) / Fold change /veh SRD5A1 (11742802_a_at) / RFU TPSAB1 /// TPSB2 (11721975_s_at) / Fold change /veh TPSAB1 /// TPSB2 (11721975_s_at) / RFU GSTM3 (11746129_a_at) / Fold change /veh GSTM3 (11746129_a_at) / RFU IL23R (11737362_x_at) / Fold change /veh IL23R (11737362_x_at) / RFU TMEM51 (11727254_a_at) / Fold change /veh TMEM51 (11727254_a_at) / RFU PIWIL2 (11732686_x_at) / Fold change /veh PIWIL2 (11732686_x_at) / RFU ORM1 (11744905_x_at) / Fold change /veh ORM1 (11744905_x_at) / RFU CCDC152 (11743942_at) / Fold change /veh CCDC152 (11743942_at) / RFU ECM1 (11717891_a_at) / Fold change /veh ECM1 (11717891_a_at) / RFU IL23R (11748794_a_at) / Fold change /veh IL23R (11748794_a_at) / RFU TNFAIP8L3 (11732012_x_at) / Fold change /veh TNFAIP8L3 (11732012_x_at) / RFU MBOAT4 (11741988_at) / Fold change /veh MBOAT4 (11741988_at) / RFU 11764193_at / Fold change /veh 11764193_at / RFU TMEM53 (11763286_at) / Fold change /veh TMEM53 (11763286_at) / RFU MAGEB2 (11727129_at) / Fold change /veh MAGEB2 (11727129_at) / RFU TMEM200A (11744735_a_at) / Fold change /veh TMEM200A (11744735_a_at) / RFU CCDC152 (11751479_a_at) / Fold change /veh CCDC152 (11751479_a_at) / RFU FAM211A (11726209_a_at) / Fold change /veh FAM211A (11726209_a_at) / RFU RGS16 (11746705_a_at) / Fold change /veh RGS16 (11746705_a_at) / RFU VCAN (11755009_s_at) / Fold change /veh VCAN (11755009_s_at) / RFU RHOB (11743442_s_at) / Fold change /veh RHOB (11743442_s_at) / RFU RGS16 (11720943_a_at) / Fold change /veh RGS16 (11720943_a_at) / RFU RGS16 (11720944_at) / Fold change /veh RGS16 (11720944_at) / RFU, VPS4B / Fold change vs veh, VPS4B / RFU, CREB1 / Fold change vs veh, CREB1 / RFU, DNAJC13 / Fold change vs veh, DNAJC13 / RFU, GNAQ / Fold change vs veh, GNAQ / RFU, CDK5R1 / Fold change vs veh, CDK5R1 / RFU, ZRANB3 / Fold change vs veh, ZRANB3 / RFU, CUL4A / Fold change vs veh, CUL4A / RFU, CCNY / Fold change vs veh, CCNY / RFU, UFL1 / Fold change vs veh, UFL1 / RFU, COG3 / Fold change vs veh, COG3 / RFU, DIAPH2 / Fold change vs veh, DIAPH2 / RFU, SKA2 / Fold change vs veh, SKA2 / RFU, AFF3 / Fold change vs veh, AFF3 / RFU, LMF1 / Fold change vs veh, LMF1 / RFU, IPO11 / Fold change vs veh, IPO11 / RFU, DFFB / Fold change vs veh, DFFB / RFU, FOXP1 / Fold change vs veh, FOXP1 / RFU, CARD8 / Fold change vs veh, CARD8 / RFU, STRN3 / Fold change vs veh, STRN3 / RFU, ADK / Fold change vs veh, ADK / RFU, RASSF2 / Fold change vs veh, RASSF2 / RFU, WIPF1 / Fold change vs veh, WIPF1 / RFU, LARP1B / Fold change vs veh, LARP1B / RFU, RASA1 / Fold change vs veh, RASA1 / RFU, RB1 / Fold change vs veh, RB1 / RFU, PPFIA1 / Fold change vs veh, PPFIA1 / RFU, MAT2A / Fold change vs veh, MAT2A / RFU, CCT5 / Fold change vs veh, CCT5 / RFU, WDR92 / Fold change vs veh, WDR92 / RFU, CUX1 / Fold change vs veh, CUX1 / RFU, TTC7A / Fold change vs veh, TTC7A / RFU, TMEM135 / Fold change vs veh, TMEM135 / RFU, DEPTOR / Fold change vs veh, DEPTOR / RFU, CPM / Fold change vs veh, CPM / RFU, DNAJB6 / Fold change vs veh, DNAJB6 / RFU, CACNA2D3 / Fold change vs veh, CACNA2D3 / RFU, DTX4 / Fold change vs veh, DTX4 / RFU, TFCP2 / Fold change vs veh, TFCP2 / RFU, GMCL1 /// GMCL1P1 / Fold change vs veh, GMCL1 /// GMCL1P1 / RFU, AEBP2 / Fold change vs veh, AEBP2 / RFU, SNHG1 /// SNORD22 /// SNORD25 /// SNORD26 /// SNORD27 /// SNORD28 /// SNORD29 /// SNORD31 / Fold change vs veh, SNHG1 /// SNORD22 /// SNORD25 /// SNORD26 /// SNORD27 /// SNORD28 /// SNORD29 /// SNORD31 / Fold change (Aza/veh), C12orf56 (ProbeSet 11735607_a_at) / Fold change (ACY-1035/veh), C12orf56 (ProbeSet 11735607_a_at) / Fold change (Aza/veh), FGFR1OP (ProbeSet 11751329_s_at) / Fold change (ACY-1035/veh), FGFR1OP (ProbeSet 11751329_s_at) / Fold change (Aza/veh), VPS36 (ProbeSet 11739960_a_at) / Fold change (ACY-1035/veh), VPS36 (ProbeSet 11739960_a_at) / RFU SYPL1 (11715823_x_at) / Fold change /veh SYPL1 (11715823_x_at) / RFU IGFBP7 (11715501_s_at) / Fold change /veh IGFBP7 (11715501_s_at) / RFU REEP3 (11722064_at) / Fold change /veh REEP3 (11722064_at) / RFU IGLL1 (11728026_x_at) / Fold change /veh IGLL1 (11728026_x_at): dose or concentration left out as unconfirmed
Conditions: MV-4-11 cells, 48 hours

## Nc1ccc(-c2cccs2)cc1NC(=O)c1ccc2c(c1)cc(C1CC1)n2CCN1CCOCC1 [ACY-1035]
  RFU OR4N2 (11742367_at): 72.30 RFU
